The results in this text go back to US9452170B2, “Compounds and methods for inducing chondrogenesis” (The California Institute for Biomedical Research, priority 2013, dated 2016).

In this assay the test system is Human MSCs. Briefly: Human chondrocyte differentiation assay (immunostaining for type II collagen, Sox9 and COMP). The class given is cell-based. Particulars: 168 h, compound 1 μM, 7 days, vs DMSO vehicle, read-out: Biological Activity (increase in staining intensity compared to vehicle control). The method, then: Human MSCs (50,000) were plated into each well of a 96-well plate and cultured overnight. Compounds (in DMSO solution) were added to the cells at a final concentration of 1 μM, and the cells were cultured for 7 days at 5% CO2, 37° C. The cells were fixed with 10% formalin solution at room temperature for 10 min, and immunostained using antibodies specific for type II collagen (Abcam), Sox9 (Santa Cruz) and cartilage oligomeric matrix protein (COMP, Santa Cruz), and fluorescently labeled secondary antibodies (Li-Cor). The total intensity of the staining was measured using Oddyssey CLx imaging system (Li-Cor). Vehicle (DMSO) was used as control to determine the basal level of chondrocyte differentiation. […] Representative data are shown in Table 1 [A: >50% increase in staining intensity compared to vehicle control; B: 30-50% increase in staining intensity compared to vehicle control].
Regarding `O=C(O)c1ccc(CNC(=O)c2c(F)cccc2C(=O)O)cc1` [Compound 94], the activation at 1 µM was in the range of 30 to 50%.

For `O=C(O)c1ccc(CNC(=O)c2ccccc2C(=O)O)c(Cl)c1` [Compound 96], the activation at 1 µM fell in the range of 30 to 50%.

`O=C(O)c1ccc(CNC(=O)c2cccc(Cl)c2C(=O)O)cc1` [Compound 99]: the activation at 1 µM is 30 to 50%.

Take `O=C(O)c1ccc(CNC(=O)c2c(Cl)cccc2C(=O)O)cc1` [Compound 100]: the activation at 1 µM lay in the range of 30 to 50%.

Take `COc1cccc(C(=O)NCc2ccc(C(=O)O)cc2)c1C(=O)O` [Compound 103]: the activation at 1 µM was > 50%.

For the compound `COc1cccc(C(=O)O)c1C(=O)NCc1ccc(C(=O)O)cc1` [Compound 104], the activation at 1 µM is > 50%.

For the compound `O=C(O)c1ccccc1C(=O)Nc1ccc(OCCO)cc1` [Compound 105], the activation at 1 µM was in the range of 30 to 50%.

Regarding `COc1ccc(C(=O)NCc2ccc(C(=O)O)cc2)c(C(=O)O)c1` [Compound 106], the activation at 1 µM was 30 to 50%.

As for `CN(c1cccc(NC(=O)c2ccccc2C(=O)O)c1)S(C)(=O)=O` [Compound 107], the activation at 1 µM fell in the range of 30 to 50%.

Regarding `O=C(Nc1ccccc1S(=O)(=O)N1CCOCC1)c1cccc(F)c1` [Compound 110], the activation at 1 µM lay within 30 to 50%.

With `O=C(Nc1ccccc1S(=O)(=O)N1CCOCC1)c1ccccc1F` [Compound 118], the activation at 1 µM lay in the range of 30 to 50%.

Turning to `CS(=O)(=O)Nc1ccccc1C(=O)NCc1ccc(C(=O)O)cc1` [Compound 120], the activation at 1 µM lay in the range of 30 to 50%.

`CC(=O)c1cccc(C(=O)Nc2ccccc2S(=O)(=O)N2CCOCC2)c1` [Compound 122]: the activation at 1 µM was > 50%.

For `CN(CCO)S(=O)(=O)c1ccccc1NC(=O)c1ccc(F)cc1` [Compound 125], the activation at 1 µM is 30 to 50%.

On to `O=C(Nc1ccccc1S(=O)(=O)N1CCOCC1)c1ccc(-c2ccccc2)cc1` [Compound 133], for which the activation at 1 µM was in the range of 30 to 50%.

As for `O=C(Nc1ccccc1S(=O)(=O)N1CCS(=O)(=O)CC1)c1ccc(F)cc1` [Compound 141], the activation at 1 µM lay within 30 to 50%.

Consider `CC(=O)Nc1ccc(NC(=O)c2ccccc2C(=O)O)cc1` [Compound 142], for which the activation at 1 µM fell in the range of 30 to 50%.

For `CC(=O)CCc1cccc(NC(=O)c2ccccc2C(=O)O)c1` [Compound 145], the activation at 1 µM lay within 30 to 50%.

Turning to `O=C(O)c1ccc(C(=O)Nc2ccccc2S(=O)(=O)N2CCOCC2)cc1` [Compound 147], the activation at 1 µM was 30 to 50%.

Consider `O=C(O)c1ccccc1C(=O)Nc1ccc(CCCO)cc1OC(F)(F)F` [Compound 148], for which the activation at 1 µM was 30 to 50%.

`COc1cc(CNC(=O)c2ccccc2C(=O)O)ccc1C(=O)O` [Compound 154]: the activation at 1 µM is 30 to 50%.

`N#Cc1cc(CNC(=O)c2ccccc2C(=O)O)ccc1C(=O)O` [Compound 155]: the activation at 1 µM is > 50%.

`CCCS(=O)(=O)Nc1ccccc1C(=O)Nc1ccc(CCOC)cc1` [Compound 159]: the activation at 1 µM is 30 to 50%.

Turning to `COCCc1ccc(NC(=O)c2ccccc2NS(=O)(=O)C(C)C)cc1` [Compound 162], the activation at 1 µM lay in the range of 30 to 50%.

In the case of `O=C(O)Cc1ccc(CNC(=O)c2ccccc2C(=O)O)cc1` [Compound 164], the activation at 1 µM was > 50%.

Consider `CC(=O)Cc1ccc(CNC(=O)c2ccccc2C(=O)O)cc1` [Compound 166], for which the activation at 1 µM lay in the range of 30 to 50%.

Regarding `NC(=O)c1ccc(CNC(=O)c2ccccc2C(=O)O)cc1` [Compound 172], the activation at 1 µM is 30 to 50%.

As for `O=C(O)c1cc(CCCO)ccc1NC(=O)c1ccccc1C(=O)O` [Compound 176], the activation at 1 µM was 30 to 50%.

As to `COc1cc(NC(=O)c2ccccc2C(=O)O)ccc1CCCO` [Compound 178], the activation at 1 µM fell in the range of 30 to 50%.

Take `O=C(O)c1cc(F)ccc1C(=O)Nc1ccc(CCCO)cc1` [Compound 180]: the activation at 1 µM lay within 30 to 50%.

On to `O=C(Nc1ccc(CCCO)cc1)c1cccc(F)c1C(=O)O` [Compound 181], for which the activation at 1 µM was 30 to 50%.

On to `O=C(O)c1cccc(F)c1C(=O)Nc1ccc(CCCO)cc1` [Compound 182], for which the activation at 1 µM was 30 to 50%.
